Target: SARS-CoV-2 PLpro (Severe acute respiratory syndrome coronavirus 2 (2019-nCoV) (SARS-CoV-2), UniProt P0DTD1)
Assay: PLpro enzymatic inhibition assay (IC50 value determination)
Format: biochemical
Settings: 60 min preincubation for covalent inhibitors, 10 min for non-covalent, read-out: Inhibition of SARS-CoV-2 PLpro IC50 range

C#CCNC(=O)CNC(=O)CN(C1CCN(c2nc3ccccc3s2)CC1)S(C)(=O)=O [Compound 119, 2-(N-(1-(benzo[d]thiazol-2-yl)piperidin-4-yl)methylsulfonamido)-N-(2-oxo-2-(prop-2-yn-1-ylamino)ethyl)acetamide] gave an IC50 of 100 to 1000 nM.
Compound C#CCNC(=O)CNC(=O)CN(C1CCN(C(C)c2ccc(Cl)cc2Cl)CC1)S(C)(=O)=O (stereo not drawn) [Compound 120, 2-(N-(1-(1-(2,4-dichlorophenyl)ethyl)piperidin-4-yl)methylsulfonamido)-N-(2-oxo-2-(prop-2-yn-1-ylamino)ethyl)acetamide] has an IC50 of 100 to 1000 nM.
With C#CCNC(=O)CNC(=O)CN(C1CCN(C(C)c2ccc(OC)c(Cl)c2)CC1)S(C)(=O)=O (stereo not drawn) [Compound 121, 2-(N-(1-(1-(3-chloro-4-methoxyphenyl)ethyl)piperidin-4-yl)methylsulfonamido)-N-(2-oxo-2-(prop-2-yn-1-ylamino)ethyl)acetamide] the IC50 was under 100 nM.
Compound C#CCNC(=O)CNC(=O)CN(C1CCN(C(C)c2cccc(OC)c2Cl)CC1)S(C)(=O)=O (stereo not drawn) [Compound 123, 2-(N-(1-(1-(2-chloro-3-methoxyphenyl)ethyl)piperidin-4-yl)methylsulfonamido)-N-(2-oxo-2-(prop-2-yn-1-ylamino)ethyl)acetamide] has an IC50 of 100 to 1000 nM.
C#CCNC(=O)CNC(=O)CN(C1CCN(C(C)c2c(Cl)cccc2Cl)CC1)S(C)(=O)=O (stereo not drawn) [Compound 125, 2-(N-(1-(1-(2,6-dichlorophenyl)ethyl)piperidin-4-yl)methylsulfonamido)-N-(2-oxo-2-(prop-2-yn-1-ylamino)ethyl)acetamide] showed an IC50 of 100 to 1000 nM.
Compound C#CCNC(=O)CNC(=O)CN(C1CCN(c2nc3cc(Cl)ccc3s2)CC1)S(C)(=O)=O [Compound 126, 2-(N-(1-(5-chlorobenzo[d]thiazol-2-yl)piperidin-4-yl)methylsulfonamido)-N-(2-oxo-2-(prop-2-yn-1-ylamino)ethyl)acetamide] has an IC50 of 1000 to 10000 nM.
C#CCCNC(=O)CNC(=O)CN(C1CCN([C@H](C)c2cccc3ccccc23)CC1)S(C)(=O)=O [Compound 127, (R)—N-(but-3-yn-1-yl)-2-(2-(N-(1-(1-(naphthalen-1-yl)ethyl)piperidin-4-yl)methylsulfonamido)acetamido)acetamide] gave an IC50 of 100 to 1000 nM.
C#CC(C)NC(=O)CNC(=O)CN(C1CCN([C@H](C)c2cccc3ccccc23)CC1)S(C)(=O)=O (stereo partly drawn) [Compound 128, N-(but-3-yn-2-yl)-2-(2-(N-(1-((R)-1-(naphthalen-1-yl)ethyl)piperidin-4-yl)methylsulfonamido)acetamido)acetamide] showed an IC50 of 1000 to 10000 nM.
With C#CCNC(=O)CNC(=O)CN(C1CCN(C(C)c2ccccc2F)CC1)S(C)(=O)=O (stereo not drawn) [Compound 129, 2-(N-(1-(1-(2-fluorophenyl)ethyl)piperidin-4-yl)methylsulfonamido)-N-(2-oxo-2-(prop-2-yn-1-ylamino)ethyl)acetamide] the IC50 was 100 to 1000 nM.
C#CCNC(=O)CNC(=O)CN(C1CCN(C(C)c2ccccc2OC)CC1)S(C)(=O)=O (stereo not drawn) [Compound 130, 2-(N-(1-(1-(2-methoxyphenyl)ethyl)piperidin-4-yl)methylsulfonamido)-N-(2-oxo-2-(prop-2-yn-1-ylamino)ethyl)acetamide] showed an IC50 of under 100 nM.
C#CCNC(=O)CNC(=O)CN(C1CCN(C(C)c2cccc3ccccc23)CC1)S(=O)(=O)CCC(=O)OC (stereo not drawn) [Compound 131, methyl 3-(N-(1-(1-(naphthalen-1-yl)ethyl)piperidin-4-yl)-N-(2-oxo-2-((2-oxo-2-(prop-2-yn-1-ylamino)ethyl)amino)ethyl)sulfamoyl)propanoate] gave an IC50 of under 100 nM.
In the case of CC(c1cccc2ccccc12)N1CCC(N(CC(=O)NCC(=O)NCC(=O)CF)S(C)(=O)=O)CC1 (stereo not drawn) [Compound 132, N-(3-fluoro-2-oxopropyl)-2-(2-(N-(1-(1-(naphthalen-1-yl)ethyl)piperidin-4-yl)methylsulfonamido)acetamido)acetamide], the IC50 is reported as under 100 nM.
Compound C#CCNC(=O)CNC(=O)CN(C1CCN([C@H](C)c2cccc3ccccc23)CC1)S(=O)(=O)CCC(N)=O [Compound 133, (R)-3-(N-(1-(1-(naphthalen-1-yl)ethyl)piperidin-4-yl)-N-(2-oxo-2-((2-oxo-2-(prop-2-yn-1-ylamino)ethyl)amino)ethyl)sulfamoyl)propanamide] has an IC50 of under 100 nM.
C#CCNC(=O)CNC(=O)CN(C1CCN([C@H](C)c2cccc3ccccc23)CC1)S(=O)(=O)N1CCC(C(=O)OC)C1 (stereo partly drawn) [Compound 134, methyl 1-(N-(1-((R)-1-(naphthalen-1-yl)ethyl)piperidin-4-yl)-N-(2-oxo-2-((2-oxo-2-(prop-2-yn-1-ylamino)ethyl)amino)ethyl)sulfamoyl)pyrrolidine-3-carboxylate] was tested, and the IC50 was under 100 nM.
C#CCNC(=O)CNC(=O)CN(C1CCN([C@H](C)c2cccc3ccccc23)CC1)S(=O)(=O)CCCO [Compound 135, (R)-2-((3-hydroxy-N-(1-(1-(naphthalen-1-yl)ethyl)piperidin-4-yl)propyl)sulfonamido)-N-(2-oxo-2-(prop-2-yn-1-ylamino)ethyl)acetamide] showed an IC50 of under 100 nM.
COC(=O)/C=C/CNC(=O)c1nnc(CNC(=O)CN(C2CCN(C(C)c3cccc4ccccc34)CC2)S(C)(=O)=O)o1 (stereo not drawn) [Compound 136, methyl (E)-4-(5-((2-(N-(1-(1-(naphthalen-1-yl)ethyl)piperidin-4-yl)methylsulfonamido)acetamido)methyl)-1,3,4-oxadiazole-2-carboxamido)but-2-enoate] showed an IC50 of 100 to 1000 nM.
Work on C#CCNC(=O)CNC(=O)CN(C1CCN([C@H](C)c2cccc3ccccc23)CC1)S(=O)(=O)N1CCC(C(N)=O)C1 (stereo partly drawn) [Compound 137, 1-(N-(1-((R)-1-(naphthalen-1-yl)ethyl)piperidin-4-yl)-N-(2-oxo-2-((2-oxo-2-(prop-2-yn-1-ylamino)ethyl)amino)ethyl)sulfamoyl)pyrrolidine-3-carboxamide] yielded an IC50 of under 100 nM.
For C#CCNC(=O)CNC(=O)CN(C1CCN(C(C)c2ccc(OC)cc2Cl)CC1)S(C)(=O)=O (stereo not drawn) [Compound 139, 2-(N-(1-(1-(2-chloro-4-methoxyphenyl)ethyl)piperidin-4-yl)methylsulfonamido)-N-(2-oxo-2-(prop-2-yn-1-ylamino)ethyl)acetamide], the IC50 was 100 to 1000 nM.
With C#CCNC(=O)CNC(=O)CN(C1CCN(C(C)c2cc(Cl)ccc2Cl)CC1)S(C)(=O)=O (stereo not drawn) [Compound 140, 2-(N-(1-(1-(2,5-dichlorophenyl)ethyl)piperidin-4-yl)methylsulfonamido)-N-(2-oxo-2-(prop-2-yn-1-ylamino)ethyl)acetamide] the IC50 was 100 to 1000 nM.
With C#CCNC(=O)CNC(=O)CN(C1CCN(C(C)c2cccc(-c3cccs3)c2)CC1)S(C)(=O)=O (stereo not drawn) [Compound 141, N-(2-oxo-2-(prop-2-yn-1-ylamino)ethyl)-2-(N-(1-(1-(3-(thiophen-2-yl)phenyl)ethyl)piperidin-4-yl)methylsulfonamido)acetamide] the IC50 was 100 to 1000 nM.
Work on C#CCNC(=O)CNC(=O)CN(C1CCN(C(C)c2cccc(C)c2Cl)CC1)S(C)(=O)=O (stereo not drawn) [Compound 142, 2-(N-(1-(1-(2-chloro-3-methylphenyl)ethyl)piperidin-4-yl)methylsulfonamido)-N-(2-oxo-2-(prop-2-yn-1-ylamino)ethyl)acetamide] yielded an IC50 of 100 to 1000 nM.
With C#CCNC(=O)CNC(=O)CN(C1CCN(C(CO)c2cccc3ccccc23)CC1)S(C)(=O)=O (stereo not drawn) [Compound 143, 2-(N-(1-(2-hydroxy-1-(naphthalen-1-yl)ethyl)piperidin-4-yl)methylsulfonamido)-N-(2-oxo-2-(prop-2-yn-1-ylamino)ethyl)acetamide] the IC50 was 1000 to 10000 nM.
C#CCNC(=O)CNC(=O)CN(C1CCN(C(CF)c2cccc3ccccc23)CC1)S(C)(=O)=O (stereo not drawn) [Compound 144, 2-(N-(1-(2-fluoro-1-(naphthalen-1-yl)ethyl)piperidin-4-yl)methylsulfonamido)-N-(2-oxo-2-(prop-2-yn-1-ylamino)ethyl)acetamide] showed an IC50 of 1000 to 10000 nM.
C#CCNC(=O)CNC(=O)CN(C1CCN([C@H](C)c2cccc3ccccc23)CC1)S(N)(=O)=O [Compound 145, (R)-2-((1-(1-(naphthalen-1-yl)ethyl)piperidin-4-yl)(sulfamoyl)amino)-N-(2-oxo-2-(prop-2-yn-1-ylamino)ethyl)acetamide 2,2,2-trifluoroacetate] showed an IC50 of under 100 nM.
For C#CC(=O)NNC(=O)CN(C1CCN([C@H](C)c2cccc3ccccc23)CC1)S(C)(=O)=O [Compound 147, (R)—N-(1-(1-(naphthalen-1-yl)ethyl)piperidin-4-yl)-N-(2-oxo-2-(2-propioloylhydrazineyl)ethyl)methanesulfonamide], the IC50 was under 100 nM.
With C#CCNC(=O)CNC(=O)CN(C1CCN(C(c2cccc3ccccc23)C(F)F)CC1)S(C)(=O)=O (stereo not drawn) [Compound 148, 2-(N-(1-(2,2-difluoro-1-(naphthalen-1-yl)ethyl)piperidin-4-yl)methylsulfonamido)-N-(2-oxo-2-(prop-2-yn-1-ylamino)ethyl)acetamide] the IC50 was 1000 to 10000 nM.
[2H]C([2H])([2H])C(c1cccc2ccccc12)N1CCC(N(CC(=O)NCC(=O)NCC#C)S(C)(=O)=O)CC1 (stereo not drawn) [Compound 151, 2-(N-(1-(1-(naphthalen-1-yl)ethyl-2,2,2-d3)piperidin-4-yl)methylsulfonamido)-N-(2-oxo-2-(prop-2-yn-1-ylamino)ethyl)acetamide] gave an IC50 of under 100 nM.
In the case of C#CCNC(=O)CNC(=O)[C@@H](C)N(C1CCN([C@H](C)c2cccc3ccccc23)CC1)S(C)(=O)=O [Compound 152, (R)-2-(N-(1-((R)-1-(naphthalen-1-yl)ethyl)piperidin-4-yl)methylsulfonamido)-N-(2-oxo-2-(prop-2-yn-1-ylamino)ethyl)propanamide], the IC50 is reported as under 100 nM.
Compound [2H]C([2H])(C#C)NC(=O)CNC(=O)CN(C1CCN(C(C)c2cccc3ccccc23)CC1)S(C)(=O)=O (stereo not drawn) [Compound 153, 2-(N-(1-(1-(naphthalen-1-yl)ethyl)piperidin-4-yl)methylsulfonamido)-N-(2-oxo-2-((prop-2-yn-1-yl-1,l-d2)amino)ethyl)acetamide] has an IC50 of under 100 nM.
With COC(CNC(=O)CNC(=O)CN(C1CCN(C(C)c2cccc3ccccc23)CC1)S(C)(=O)=O)OC (stereo not drawn) [Compound 154, N-(2,2-dimethoxyethyl)-2-(2-(N-(1-(1-(naphthalen-1-yl)ethyl)piperidin-4-yl)methylsulfonamido)acetamido)acetamide] the IC50 was 1000 to 10000 nM.

Source: patent US20250059159A1, “PLPRO INHIBITORS” (SHANGHAI SYNERGY PHARMACEUTICAL SCIENCES CO., LTD., priority 2021, published 2025)
